Data set [1] has as its target T1, rRNA adenine N-6-methyltransferase (Staphylococcus aureus (strain N315)) (UniProt P0A0H2).
T1 sequence (whole entry): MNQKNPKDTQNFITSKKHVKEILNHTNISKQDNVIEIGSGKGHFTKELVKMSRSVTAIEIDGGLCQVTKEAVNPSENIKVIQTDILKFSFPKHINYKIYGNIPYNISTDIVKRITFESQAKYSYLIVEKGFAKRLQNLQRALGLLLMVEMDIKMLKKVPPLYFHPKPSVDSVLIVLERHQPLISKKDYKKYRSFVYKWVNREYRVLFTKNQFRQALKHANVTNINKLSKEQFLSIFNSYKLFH
Put plainly: Inhibition of recombinant bacterial ErmC' expressed in Escherichia coli DH5alpha assessed as potentiation of erythromycin-mediated growth inhibition by measuring erythromycin MIC after 18 hrs by dilution method (reference value: > 2560 mg/L). To be noted: Bacteria.

For data set [2], the system named is Escherichia coli. Put plainly: Antibacterial activity against Escherichia coli DH5alpha expressing recombinant bacterial ErmC' after 18 hrs by dilution method. In kind it is ADME, organism-based, DH5[alpha].
Data set [3] has as its target rRNA adenine N-6-methyltransferase (Staphylococcus aureus, UniProt P02979). Put plainly: Inhibition of Staphylococcus aureus ErmC' expressed in Bacillus subtilis BD170 assessed as decrease in rRNA methylation using [methyl-3H]AdoMet measured after 120 mins by beta-plate counting method.
Data set [4] has as its target T2, rRNA adenine N-6-methyltransferase (Staphylococcus aureus (strain N315), UniProt P0A0H2).
T2 sequence (P0A0H2 whole entry): T1 sequence (whole entry)
The data set can be described thus: Inhibition of bacterial C-terminal His6-tagged ErmC' (unknown origin) expressed in Escherichia coli BL21(DE3) assessed as decrease in rRNA methylation using [methyl-3H]AdoMet measured after 1 hr. Also on record: species or system Bacteria.

Data set [5] addresses T1, rRNA adenine N-6-methyltransferase (Staphylococcus aureus (strain N315)). Put plainly: Uncompetitive inhibition of bacterial C-terminal His6-tagged ErmC' expressed in Escherichia coli BL21(DE3) in presence of [methyl-3H]SAM. The following applies: Bacteria.
Data set [6] can be described thus: Cytotoxicity against HEK293 cells assessed as cell viability at 125 uM after 24 hrs by MTT assay relative to control. In kind it is cell-based. The following applies: human, read-out: Activity.
A short description of data set [7]: Cytotoxicity against HEK293 cells assessed as cell viability at 1000 uM after 24 hrs by MTT assay relative to control. In kind it is cell-based. To be noted: human, read-out: Activity. (Tetrazolium dyes change colour on reduction, which living cells bring about.)
Data set [8] has as its system HEK293. The data set can be described thus: Cytotoxicity against HEK293 cells assessed as decrease in cell viability after 24 hrs by MTT assay. In kind it is cell-based. The following applies: human, hek293, 24 h.
Data set [9] is described as follows: Cytotoxicity against HEK293 cells assessed as cell viability at 125 to 1000 uM after 24 hrs by MTT assay relative to control. It is filed as cell-based. The following applies: human.
Data set [10] concerns the target T1, rRNA adenine N-6-methyltransferase (Staphylococcus aureus (strain N315)). Put plainly: Inhibition of bacterial C-terminal His6-tagged ErmC' expressed in Escherichia coli BL21(DE3) assessed as decrease of protein binding to [gamma-33P]ATP-labeled 32-nt oligonucleotide at 6.25 mM after 30 mins by filter binding assay relative to control. The following applies: Bacteria.

Data set [11] shares this target. Put plainly: Inhibition of bacterial C-terminal His6-tagged ErmC' expressed in Escherichia coli BL21(DE3) assessed as decrease of protein binding to [gamma-33P]ATP-labeled 32-nt oligonucleotide at 5.01 mM after 30 mins by filter binding assay relative to control. To be noted: Bacteria.

Chain of rRNA adenine N-6-methyltransferase (Staphylococcus aureus, UniProt P02979) (P02979 whole entry): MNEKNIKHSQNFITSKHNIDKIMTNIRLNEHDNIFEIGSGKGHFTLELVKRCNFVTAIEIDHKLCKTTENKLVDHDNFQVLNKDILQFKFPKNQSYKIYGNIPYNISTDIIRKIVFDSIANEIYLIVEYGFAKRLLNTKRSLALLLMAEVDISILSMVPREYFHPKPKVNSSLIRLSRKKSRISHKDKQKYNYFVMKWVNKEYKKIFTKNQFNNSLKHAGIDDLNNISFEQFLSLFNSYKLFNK

`O=C(c1cc(C2CC2)n[nH]1)N1CCN(c2ccc(C(F)(F)F)cn2)CC1`: the MIC in data set [1] was 2560 µg/mL; in [2] it was “>= 100 mg/L”.
On the same counts, the results for `CC(=O)c1c[nH]c(C(=O)N2CCN(c3ccc(C(F)(F)F)cn3)CC2)c1` are 2560 µg/mL and “>= 100 mg/L”.
As to `CC(C)c1ccc(NC(=S)N/N=C/c2cc(Cl)cc(Cl)c2O)cc1`, the IC50 in data set [3] is 450 nM.
Take `Cc1nccn1-c1ccc(CNc2nc3ccccc3o2)cc1F`: the 50% inhibitory concentration (IC50) result in data set [4] was “Not Active”. Also, the MIC in data set [1] is 2000 µg/mL; in data set [2] it was “>= 100 mg/L”.
With `Cc1cccc(Nc2nc(C(=O)N3CCN(c4ccc(C(F)(F)F)cn4)CC3)cs2)n1`, the MIC in data set [1] was 2560 µg/mL; in [2], “>= 100 mg/L”. In addition, in data set [5], the alphaKi worked out at 155 µM. In addition, in data set [6], the viability at 24 h, 125 µM amounted to 59%. For the same compound, in data set [7], the viability at 24 h, 1000 µM was found to be 16%. In addition, the Activity result in data set [8] is recorded as “Dose-dependent effect”.
With `O=C(CSc1nc2cccnc2[nH]1)Nc1nccs1`, the MIC was 2000 µg/mL in [1] and “>= 100 mg/L” in [2].
On to `Cc1nccc(C(=O)Nc2cc(NC(=O)c3ccccc3)ccc2C)n1`, for which, in data set [4], the IC50 result was “Not Active”. Moreover, the values for the MIC in [1] and in data set [2] were 2560 µg/mL and “>= 100 mg/L”, respectively.
`CC(=O)Nc1nc(C)c(-c2csc(Nc3cccc(O)c3)n2)s1`: the MIC was 2000 µg/mL in [1] and “>= 100 mg/L” in data set [2]. Besides, in [9] (read-out: %max), the viability at 24 h, up to 1000 µM stood at 4.5%.
For `COC(=O)c1sc2ccccc2c1OS(=O)(=O)c1ccc(Cl)cc1`, the fold change (FC) in data set [10] was found to be 3.
For the compound `O=C(Nc1cccc(NC(=O)c2cccc(F)c2)c1)c1ccncc1`, the MIC was 2560 µg/mL in [1] and “>= 100 mg/L” in data set [2].
For the compound `CCC1N=C(C)C(CN2CCN(c3ccc(C(F)(F)F)cn3)CC2)=N1` (stereo not drawn), the concentration for half-maximal inhibition (IC50) entry in [4] is given as “Not Active”. The MIC was 2000 µg/mL in data set [1] and “>= 100 mg/L” in data set [2].
In the case of `CCCc1cc(C(=O)Nc2cccc(OCc3ccncc3)c2)[nH]n1`, the MIC is greater than 2560 µg/mL in data set [1] and “>= 100 mg/L” in data set [2].
Consider `O=C(c1ccn[nH]1)N1CCN(c2ccc(C(F)(F)F)cn2)CC1`, for which the 50% inhibitory concentration (IC50) entry in data set [4] is recorded as “Not Active”. Besides, the figures for the MIC in data set [1] and in data set [2] were 2560 µg/mL and “>= 100 mg/L”, respectively.
With `COc1ccc(C(=O)CSc2nc(O)cc(=O)[nH]2)cc1`, the results for the MIC in [1] and in [2] were 2000 µg/mL and “>= 100 mg/L”, respectively.
As to `O=C(c1csc(Nc2ncccn2)n1)N1CCN(c2ccc(C(F)(F)F)cn2)CC1`, the MIC in data set [1] is 2000 µg/mL; in data set [2], “>= 100 mg/L”. Moreover, the viability at 24 h, up to 1000 µM in data set [9] (read-out: Activity) was 59 to 67%.
With `O=C(Cc1cccc(F)c1)Nc1cccc(-c2ccn[nH]2)c1`, the MIC in [1] is 2560 µg/mL; in data set [2], “>= 100 mg/L”.
Taken in the same sequence, the figures for `O=C(Cc1cn2ccsc2n1)Nc1cccc(N2CCCC2=O)c1` were 2560 µg/mL and “>= 100 mg/L”.
On the same counts, the results for `O=C(Nc1ccn(CCc2ccncc2)n1)Nc1ccc(F)cc1F` are greater than 2560 µg/mL and “>= 100 mg/L”.
Turning to `O=C(Nc1nccs1)c1cc(-c2ccccn2)nc2ccccc12`, the MIC in [1] is 2560 µg/mL; in data set [2], “>= 100 mg/L”.
As to `Cc1cnc(C(=O)NCCNc2ccc(C(F)(F)F)cn2)cn1`, the IC50 result in [4] was “Not Active”. Further, the MIC in [1] was 2560 µg/mL; in data set [2], “>= 100 mg/L”.
Take `FC(F)(F)c1ccc(N2CCN(Cc3c[nH]c(-c4ccccc4)n3)CC2)nc1`: the MIC was 2560 µg/mL in data set [1] and “>= 100 mg/L” in [2].
Taken in the same sequence, the figures for `O=C(NCCOc1ccc2c(c1)OCO2)c1ccc2ccccc2n1` were greater than 2560 µg/mL and “>= 100 mg/L”.
Turning to `O=C(CSc1nc2[nH]cnc2c(=O)[nH]1)Nc1ccc(O)cc1`, the half-inhibitory concentration (IC50) result in data set [4] is recorded as “Not Active”. Moreover, the MIC in data set [1] is 2560 µg/mL; in data set [2] it was “>= 100 mg/L”.
Consider `Nc1nc(N)nc(CSc2nnc(NCc3ccccc3)s2)n1`, for which the MIC in [1] is 2560 µg/mL; in [2] it was “>= 100 mg/L”.
With `O=C(c1cnn[nH]1)N1CCN(c2ccc(C(F)(F)F)cn2)CC1`, the MIC in data set [1] was 2560 µg/mL; in data set [2], “>= 100 mg/L”.
On the same counts, the results for `O=C(Nc1cccc(NCc2ccncc2)c1)c1ccccc1Cl` are 2560 µg/mL and “>= 100 mg/L”.
Regarding `O=C(NCCSc1ccccc1)c1ccc(-n2cncn2)cc1`, the MIC in data set [1] is 2560 µg/mL; in data set [2], “>= 100 mg/L”.
As to `Nn1c(SCc2nc3ccccc3[nH]2)nnc1-c1ccncc1`, the figures for the MIC in data set [1] and in data set [2] were greater than 2560 µg/mL and “>= 100 mg/L”, respectively.
With `Cc1cnc(C(=O)NCCNc2ncccc2C(F)(F)F)cn1`, the 50% inhibitory concentration (IC50) entry in [4] is “Not Active”. The figures for the MIC in [1] and in [2] were 2560 µg/mL and “>= 100 mg/L”, respectively.
`Cn1cnnc1-c1cccc(NC(=O)Cc2cccc(F)c2)c1`: the MIC in data set [1] is 2560 µg/mL; in data set [2], “>= 100 mg/L”.
As to `FC(F)(F)c1ccc(N2CCN(Cc3cn4ccccc4n3)CC2)nc1`, the MIC is 2560 µg/mL in [1] and “>= 100 mg/L” in [2].
On to `Cc1cc(S(N)(=O)=O)cc(NC(=O)Cn2cnc(C#N)n2)c1C`, for which the IC50 entry in data set [4] is on record as “Not Active”. Moreover, the MIC in data set [1] was 2560 µg/mL; in data set [2], “>= 100 mg/L”.
For the compound `O=C(c1c[nH]c(=O)[nH]1)N1CCN(c2ccc(C(F)(F)F)cn2)CC1`, the MIC in data set [1] was 2560 µg/mL; in data set [2] it was “>= 100 mg/L”. Further, in data set [11], the fold change (FC) worked out at 2. For the same compound, in data set [6], the viability at 24 h, 125 µM was found to be 58%. Further, in data set [7], the viability at 24 h, 1000 µM stood at 68%.
Consider `CC(=O)Nc1ccc(S(=O)(=O)NCCc2ccncc2)cc1`, for which the MIC in data set [1] is greater than 2560 µg/mL; in data set [2], “>= 100 mg/L”.
On to `O=C(NCCNc1ccc(C(F)(F)F)cn1)c1cnccn1`, for which the half-maximal inhibitory concentration (IC50) entry in data set [4] was “Not Active”. Further, the MIC in data set [1] is 2000 µg/mL; in [2], “>= 100 mg/L”.
For `O=C(NCc1cccc(Cn2ccnc2)c1)c1cc2ccccc2o1`, the MIC was greater than 2560 µg/mL in data set [1] and “>= 100 mg/L” in [2].
On to `Nc1nc(N)nc(COC(=O)c2occc2COc2ccccc2)n1`, for which the concentration for half-maximal inhibition (IC50) result in [4] is on record as “Not Active”. In addition, the MIC in [1] is 2560 µg/mL; in [2], “>= 100 mg/L”.
As for `O=C(c1n[nH]c(=O)[nH]1)N1CCN(c2ccc(C(F)(F)F)cn2)CC1`, the MIC in data set [1] was 2560 µg/mL; in [2], “>= 100 mg/L”.
Taken in the same sequence, the figures for `O=C(Nc1ccncc1)c1ccn(COc2ccc(F)c(Cl)c2)n1` were 2000 µg/mL and “>= 100 mg/L”.
`O=C(c1cc(Cl)c[nH]1)N1CCN(c2ncc(C(F)(F)F)cc2Cl)CC1`: the MIC in data set [1] is 2000 µg/mL; in data set [2], “>= 100 mg/L”.
`O=C(NCCNc1ncccc1C(F)(F)F)c1cnccn1`: the IC50 entry in data set [4] is given as “Not Active”. Also, the figures for the MIC in [1] and in data set [2] were 2560 µg/mL and “>= 100 mg/L”, respectively.
Take `O=C(NC1CCN(c2nc3ccccc3s2)CC1)c1ccncc1`: the MIC is 2560 µg/mL in data set [1] and “>= 100 mg/L” in [2].
As to `O=C(CSc1nnc2c(n1)[nH]c1ccccc12)Nc1ccccn1`, the MIC was 2560 µg/mL in data set [1] and “>= 100 mg/L” in data set [2].
Taken in the same sequence, the figures for `CN(C)c1ccc(CNC(=O)c2ccc(-n3cncn3)cc2)cc1` were 2000 µg/mL and “>= 100 mg/L”.
On the same counts, the results for `Cc1occc1C(=O)Nc1nc(CC(=O)Nc2ccccc2)cs1` are 2560 µg/mL and “>= 100 mg/L”.
Taken in the same sequence, the figures for `O=C(c1cn(-c2ccccc2)nn1)N1CCN(c2ccc(C(F)(F)F)cn2)CC1` were 2560 µg/mL and “>= 100 mg/L”.
As for `O=C(CCn1cncn1)NCc1cccc(NC(=O)C2CCCC2)c1`, in data set [4], the concentration for half-maximal inhibition (IC50) entry is “Not Active”. Besides, the MIC in data set [1] was 2560 µg/mL; in data set [2] it was “>= 100 mg/L”.

The IC50 is the midpoint of a concentration-inhibition curve.

Source of the values: ChEMBL document CHEMBL4145498, “Novel inhibitors of the rRNA ErmC' methyltransferase to block resistance to macrolides, lincosamides, streptogramine B antibiotics” (Eur J Med Chem, 2018).
